According to patent publication US10543155B2, “Compositions containing zinc salts and isothiocyanates for reduction of oral volatile sulfur compounds (VSCs)” (priority 2011, dated 2020):

What was measured:
[1] = in vitro reduction of headspace H2S by isothiocyanates (GC-SCD); details: for Peak Area (headspace H2S): 200 ppm H2S in 5 ml PBS pH 7.4, 5 min 37° C.
Method: A stock solution of H2S was prepared by a serial dilution in PBS buffer (pH 7.4), with a final concentration of 200 ppm. Allyl isothiocyanate, benzyl isothiocyanate, ethyl isothiocyanate and 3-methylthiopropyl isothiocyanate (all from Sigma-Aldrich) were dissolved in pure ethanol to form 1.0% of working solution of each. A total of 5 ml PBS buffer containing 200 ppm of H2S in a headspace vial (22 ml volume) was mixed with 0.125, 0.25, 0.5 and 1 mg of each isothiocyanate compound for 5 min at 37° C., respectively. The headspace sample was injected into the GC-SCD by an automatic sampler for VSC analysis. The reduction of headspace concentration of H2S was calculated by the formula below: […]
In view of the results pertaining to allyl isothiocyanate in Table 1, Applicants further evaluated allyl isothiocyanate in vitro for its VSC elimination effect of hydrogen sulfide (H2S). A […] headspace vial containing 5 ml of PBS solution and 200 ppm of H2S was treated with various concentrations of allyl isothiocyanate, respectively (0.25-1.0 mg). In a standard experimental protocol, a stock of hydrogen sulfide solutions were prepared by dissolving c.a. 0.10 g of sodium sulfide in a total of 10 ml phosphate buffer solution (PBS) (pH 7.4). It was further diluted in PBS to produce a working solution contained 200 ppm of H2S in buffer.

[2] = in vitro headspace GC-SCD test of zinc salts against H2S; details: 5 ml PBS containing 1 mg H2S, 37° C. 5 min; for reduces the oral malodor produced by hydrogen sulfide (H2S): FIG. 2
Method: In another experiment, 5 ml of PBS solution containing 1 mg of H2S was prepared via a serial dilution in a 22 ml headspace vial for FIG. 2 below. Different amounts of zinc salts were added and mixed at 37° C. for 5 min. The headspace concentration of H2S was analyzed by GC-SCD.

[3] = in vitro headspace GC-SCD test of zinc salts against methyl mercaptan; details: 200 ppm CH3SH in 5 ml PBS pH 7.4, 5 minutes at 37° C., FIG. 1
Method: For evaluation of the efficacy of various zinc salts against specific VSCs, the Applicants established an in vitro method using a headspace gas-chromatograph equipped with a sulfur detector. Thus, a total of 200 ppm of CH3SH in 5 ml of phosphate buffer solution (PBS) was prepared. The pH was maintained at 7.4. […] The headspace sample was injected into a gas chromatograph sulfur chemiluminescence detector (GC-SCD).

[4] = zinc lactate and AITC against VSC mixture, headspace GC-SCD: CH3SH; details: 1 mg in 5 ml VSC mixture (200 ppm H2S, 40 ppm CH3SH), 37° C. 5 min, FIG. 4
Method: (§1) The final concentrations of H2S and CH3SH in solution were a 200 and 40 ppm, respectively. The final amount of VSC was 1.2 mg in the test vial. Although the headspace concentrations of H2S and CH3SH were well above the level found in a typical foul mouth air (200-500 parts per billion), the total amount of VSC was close to the amount presented in oral cavity. Subsequently, 5 ml of the VSC mixture was kept in a 22 ml tight screw cap headspace vial at 37° C. for 5 min. The headspace sample was injected into a GC column with an SCD detector. […] The large peak area of CH3SH reflects its volatility in the headspace compared with H2S.
(§2) Separately, 1 mg of zinc lactate, or 1 mg of allyl isothiocyanate (AITC), or combination of 1 mg Zinc lactate and 1 mg of AITC were added to each of headspace vial containing 5 ml VSC mixture and equilibrated at 37° C. for 5 min. Each headspace sample was injected into a GC column by a Combi-Pal auto-sampler. The amount of sulfur was analyzed by an Agilent SCD-355 chemoluminescent sulfide detector.

[5] = zinc lactate and AITC against VSC mixture, headspace GC-SCD: H2S; details: 1 mg in 5 ml VSC mixture (200 ppm H2S, 40 ppm CH3SH), 37° C. 5 min, FIG. 4
Method: as §1, §2

[6] = 50 ppm isothiocyanate, 200 ppm H2S
[7] = 100 ppm isothiocyanate, 200 ppm H2S
[8] = 200 ppm isothiocyanate, 200 ppm H2S

Compound	% Reduction of headspace concentration (H2S) [1, 6]	Peak Area (headspace H2S) ([1]; 50 ppm isothiocyanate)	% Reduction of headspace concentration (H2S) [1, 7]	Peak Area (headspace H2S) ([1]; 100 ppm isothiocyanate)	% Reduction of headspace concentration (H2S) [1, 8]	Peak Area (headspace H2S) ([1]; 200 ppm isothiocyanate)	reduces the oral malodor produced by hydrogen sulfide (H2S) [2]	further results
CCN=C=S [Ethylisothiocyanate, ethyl isothiocyanate]	−13%	963110533	14.9%	726258436	68%	271822727	–	% Reduction of headspace concentration (H2S) ([1]; 200 ppm isothiocyanate, 200 ppm H2S, listed as ethylisothiocyanate): 68%
zinc ascorbate	–	–	–	–	–	–	reduces	–
zinc gluconate	–	–	–	–	–	–	reduces	reducing the headspace concentration of methyl mercaptan (CH3SH) [3]: ineffective
CSCCCN=C=S [3-methylthiopropyl isothiocyanate]	51%	416687277	75%	211177117	94.5%	46897168	–	–
C=CCN=C=S [Allyl isothiocyanate, allyl isothiocyanate]	49%	431713256	98.4%	13651581	99.5%	4266119	–	Reduction of H2S ([1]; 0.25 mg allyl isothiocyanate, 5 ml PBS, 200 ppm H2S): 49.0%; Reduction of H2S ([1]; 0.5 mg allyl isothiocyanate, 5 ml PBS, 200 ppm H2S): 98.4%; Reduction of H2S ([1]; 1 mg allyl isothiocyanate, 5 ml PBS, 200 ppm H2S): 99.5%; Reduction of H2S ([1]; at 100 ppm or greater): greater than 90%; CH3SH eliminated [4]: 78%; H2S eliminated [5]: 98%
zinc hydrogen aspartate	–	–	–	–	–	–	reduces	–
S=C=NCc1ccccc1 [Benzyl isothiocyanate, benzyl isothiocyanate]	53%	398519292	–	–	–	–	–	% Reduction of headspace concentration (H2S) ([1]; 25 ppm isothiocyanate, 200 ppm H2S): 42%; Peak Area (headspace H2S) ([1]; 25 ppm isothiocyanate): 491908604; % Reduction of headspace concentration (H2S) ([1]; 50 ppm isothiocyanate, 200 ppm H2S, listed as benzyl isothiocyanate): greater than 50%
CC(O)C(=O)[O-].CC(O)C(=O)[O-].[Zn+2] (stereo not drawn) [zinc lactate]	–	–	–	–	–	–	reduces	CH3SH eliminated [4]: 0%; amount of zinc salt above which H2S is reduced ([2]; in vitro): greater than 0.25 mg; H2S eliminated [5]: 98%; reducing the headspace concentration of methyl mercaptan (CH3SH) [3]: ineffective
